Assay results from US12319652B2, “Salts and solid forms of (R)-1-(5-methoxy-1H-indol-1-yl)-N,N-dimethylpropan-2-amine” (priority 2021, dated 2025).
Like-named read-outs stand apart in the source and are kept apart here.

Legend:
[1] = assay type: physicochemical
Procedure: Equilibrium Humidity Evaluation (40° C./75% RH for 10 Days)
100 mg portions of compound 1 salts (for inputs see table below) were placed in the relevant open vials. The powders were finely divided and distributed evenly over the base of the vial, such that equal material coverage across the panel was observed. These samples were then maintained 40°C. under 75% RH. The samples were sub-sampled at intervals of 5 and 10 days and analysed by ^1H NMR, HPLC, XRPD, DSC, TGA and PLM, for evidence of phase change or chemical degradation (FIG. 269-297).

[2] = Dynamic vapor sorption (DVS); assay type: physicochemical
Procedure: There are two main methods to use, one is by time where the equilibration is given by a fixed time, i.e., 1 hour per step and is appropriate for an unknown phase. The second, is by mass per time unit (dm/dt) of 0.002%/min; that is when the difference in weight is less than 0.002%, the instrument moves onto the next step. For unknown hygroscopicity, the method by time is indicated because it gives an idea of water affinity without wasting much time. Ideally the analyses are repeated using the mass equilibration method to confirm. By experience for hygroscopic samples, the analysis can continue for days. For non-hygroscopic samples the difference between the two methods may not be significant.
Consequently, amorphous batch 1 was analyzed by the fixed time method and once compound 1 fumarate crystalline polymorphic Form A was generated the analyses was repeated as mass per unit time equilibrated @dm/dt ([…]) and is given below (refer to FIG. 12).
(§1) The moisture sorption properties of the feed API were analysed by DVS Intrinsic instrument (Surface Measurement System). Approximately 20 to 50 mg of API was weighed onto an aluminium pan and loaded into the instrument equilibrated at 25° C. The sample was equilibrated under a dry atmosphere (0% relative humidity) for 60 minutes, before increasing the humidity from 0% to 30% at 5%4 step increment and from 30% to 90% at 10% step increment. A desorption cycle was also applied from 90% to 30% (10% step decrement) and from 30% to 0% (5% step decrement). A rate of change in mass per time unit (dm/dt) of 0.002%/min was set as the equilibrium parameter. Kinetic and isotherm graphs were calculated.
Specimens were equilibrated at 0% RH for 60 min, prior to DVS analyses (stepped increment % RH up to 90% RH and stepped decrement % RH down to 0% RH.
as §1, with “5%” for “5%4”

COc1ccc2c(ccn2C[C@@H](C)N(C)C)c1.O=C(O)/C=C\C(=O)O [Maleate salt]
HPLC peak RRT 0.93 ([1]; salt before storage (t = 0)): 0.03
HPLC peak RRT 0.98 ([1]; salt before storage (t = 0)): 0.06
HPLC peak RRT 1.00 (reference peak) ([1]; salt before storage (t = 0)): 99.22
HPLC peak RRT 1.10 ([1]; salt before storage (t = 0)): 0.28
HPLC peak RRT 1.13 ([1]; salt before storage (t = 0)): 0.14
HPLC peak RRT 1.17 ([1]; salt before storage (t = 0)): 0.02
HPLC peak RRT 1.18 ([1]; salt before storage (t = 0)): 0.03
HPLC peak RRT 1.19 ([1]; salt before storage (t = 0)): 0.08
HPLC peak RRT 1.25 ([1]; salt before storage (t = 0)): 0.03
HPLC peak RRT 1.34 ([1]; salt before storage (t = 0)): 0.11
HPLC peak RRT 0.84 ([1]; t = 5 d at 75% RH at 40° C.): 0.31
HPLC peak RRT 0.93 ([1]; t = 5 d at 75% RH at 40° C.): 0.05
HPLC peak RRT 0.98 ([1]; t = 5 d at 75% RH at 40° C.): 0.03
HPLC peak RRT 1.00 (reference peak) ([1]; t = 5 d at 75% RH at 40° C.): 99.09
HPLC peak RRT 1.13 ([1]; t = 5 d at 75% RH at 40° C.): 0.21
HPLC peak RRT 1.19 ([1]; t = 5 d at 75% RH at 40° C.): 0.10
HPLC peak RRT 1.34 ([1]; t = 5 d at 75% RH at 40° C.): 0.22
HPLC peak RRT 0.84 ([1]; t = 10 d at 75% RH at 40° C.): 0.65
HPLC peak RRT 0.93 ([1]; t = 10 d at 75% RH at 40° C.): 0.06
HPLC peak RRT 0.98 ([1]; t = 10 d at 75% RH at 40° C.): 0.05
HPLC peak RRT 1.00 (reference peak) ([1]; t = 10 d at 75% RH at 40° C.): 98.30
HPLC peak RRT 1.13 ([1]; t = 10 d at 75% RH at 40° C.): 0.33
HPLC peak RRT 1.19 ([1]; t = 10 d at 75% RH at 40° C.): 0.09
HPLC peak RRT 1.22 ([1]; t = 10 d at 75% RH at 40° C.): 0.09
HPLC peak RRT 1.25 ([1]; t = 10 d at 75% RH at 40° C.): 0.02
HPLC peak RRT 1.26 ([1]; t = 10 d at 75% RH at 40° C.): 0.06
HPLC peak RRT 1.28 ([1]; t = 10 d at 75% RH at 40° C.): 0.05
HPLC peak RRT 1.32 ([1]; t = 10 d at 75% RH at 40° C.): 0.10
HPLC peak RRT 1.34 ([1]; t = 10 d at 75% RH at 40° C.): 0.19

COc1ccc2c(ccn2C[C@@H](C)N(C)C)c1.Cl [HCl salt]
HPLC peak RRT 0.93 ([1]; salt before storage (t = 0)): 0.01
HPLC peak RRT 0.98 ([1]; salt before storage (t = 0)): 0.02
HPLC peak RRT 0.99 ([1]; salt before storage (t = 0)): 0.01
HPLC peak RRT 1.00 (reference peak) ([1]; salt before storage (t = 0)): 99.60
HPLC peak RRT 1.20 ([1]; salt before storage (t = 0)): 0.01
HPLC peak RRT 1.22 ([1]; salt before storage (t = 0)): 0.11
HPLC peak RRT 1.26 ([1]; salt before storage (t = 0)): 0.16
HPLC peak RRT 1.30 ([1]; salt before storage (t = 0)): 0.03
HPLC peak RRT 1.32 ([1]; salt before storage (t = 0)): 0.01
HPLC peak RRT 1.35 ([1]; salt before storage (t = 0)): 0.04
HPLC peak RRT 0.93 ([1]; t = 5 d at 75% RH at 40° C.): 0.05
HPLC peak RRT 0.98 ([1]; t = 5 d at 75% RH at 40° C.): 0.02
HPLC peak RRT 1.00 (reference peak) ([1]; t = 5 d at 75% RH at 40° C.): 99.42
HPLC peak RRT 1.20 ([1]; t = 5 d at 75% RH at 40° C.): 0.02
HPLC peak RRT 1.22 ([1]; t = 5 d at 75% RH at 40° C.): 0.42
HPLC peak RRT 1.26 ([1]; t = 5 d at 75% RH at 40° C.): 0.02
HPLC peak RRT 1.28 ([1]; t = 5 d at 75% RH at 40° C.): 0.02
HPLC peak RRT 1.35 ([1]; t = 5 d at 75% RH at 40° C.): 0.04
HPLC peak RRT 0.93 ([1]; t = 10 d at 75% RH at 40° C.): 0.05
HPLC peak RRT 0.98 ([1]; t = 10 d at 75% RH at 40° C.): 0.01
HPLC peak RRT 1.00 (reference peak) ([1]; t = 10 d at 75% RH at 40° C.): 99.60
HPLC peak RRT 1.22 ([1]; t = 10 d at 75% RH at 40° C.): 0.31
HPLC peak RRT 1.35 ([1]; t = 10 d at 75% RH at 40° C.): 0.02

COc1ccc2c(ccn2C[C@@H](C)N(C)C)c1.Cl [Compound 1 HCl (Form A)]
DVS 0 to 90 to 0% RH (dm/dt <0.002%) ([2]; 0.0% RH, sorption): DVS 0 to 90 to 0% RH (dm/dt <0.002%): 0.0 (0.00%), 5.0 (0.00%),
DVS 0 to 90 to 0% RH (dm/dt <0.002%) ([2]; 5.0% RH, desorption): 0.03%
DVS 0 to 90 to 0% RH (dm/dt <0.002%) ([2]; 5.0% RH, sorption): DVS 0 to 90 to 0% RH (dm/dt <0.002%): 0.0 (0.00%), 5.0 (0.00%),
DVS 0 to 90 to 0% RH (dm/dt <0.002%) ([2]; 10.0% RH, desorption): 0.04%
DVS 0 to 90 to 0% RH (dm/dt <0.002%) ([2]; 10.0% RH, sorption): 0.02%
DVS 0 to 90 to 0% RH (dm/dt <0.002%) ([2]; 15.0% RH, desorption): 0.05%
DVS 0 to 90 to 0% RH (dm/dt <0.002%) ([2]; 15.0% RH, sorption): 0.02%
DVS 0 to 90 to 0% RH (dm/dt <0.002%) ([2]; 20.0% RH, desorption): 0.06%
DVS 0 to 90 to 0% RH (dm/dt <0.002%) ([2]; 20.0% RH, sorption): 0.03%
DVS 0 to 90 to 0% RH (dm/dt <0.002%) ([2]; 25.0% RH, desorption): 0.07%
DVS 0 to 90 to 0% RH (dm/dt <0.002%) ([2]; 25.0% RH, sorption): 0.04%
DVS 0 to 90 to 0% RH (dm/dt <0.002%) ([2]; 30.0% RH, desorption): 0.09%
DVS 0 to 90 to 0% RH (dm/dt <0.002%) ([2]; 30.0% RH, sorption): 0.05%
DVS 0 to 90 to 0% RH (dm/dt <0.002%) ([2]; 40.0% RH, desorption): 0.10%
DVS 0 to 90 to 0% RH (dm/dt <0.002%) ([2]; 40.0% RH, sorption): 0.07%
DVS 0 to 90 to 0% RH (dm/dt <0.002%) ([2]; 50.0% RH, desorption): 0.14%
DVS 0 to 90 to 0% RH (dm/dt <0.002%) ([2]; 50.0% RH, sorption): 0.10%
DVS 0 to 90 to 0% RH (dm/dt <0.002%) ([2]; 60.0% RH, desorption): 0.17%
DVS 0 to 90 to 0% RH (dm/dt <0.002%) ([2]; 60.0% RH, sorption): 0.14%
DVS 0 to 90 to 0% RH (dm/dt <0.002%) ([2]; 70.0% RH, desorption): 0.22%
DVS 0 to 90 to 0% RH (dm/dt <0.002%) ([2]; 70.0% RH, sorption): 0.19%
DVS 0 to 90 to 0% RH (dm/dt <0.002%) ([2]; 80.0% RH, desorption): 0.29%
DVS 0 to 90 to 0% RH (dm/dt <0.002%) ([2]; 80.0% RH, sorption): 0.26%
DVS 0 to 90 to 0% RH (dm/dt <0.002%) ([2]; 90.0% RH, desorption): 0.46%
DVS 0 to 90 to 0% RH (dm/dt <0.002%) ([2]; 90.0% RH, sorption): 0.46%
